Data from ChEMBL document CHEMBL1157022, “Synthesis, cytotoxicity and DNA-binding of novel bisnaphthalimidopropyl derivatives in breast cancer MDA-MB-231 cells” (Eur J Med Chem, 2010).

Experiments:
Nucleic Acid [1] = test: Binding affinity to calf thymus DNA assessed as temperature required to cause 50% of DNA denatured at 10 uM by thermal denaturation assay; assay type: nucleic-acid assay; conditions: Bos taurus
MDA-MB-231 [2] = test: Cytotoxicity against human MDA-MB-231 cells after 48 hrs by MTT assay; assay type: functional, cell-based; conditions: MDA-MB-231, 48 h
MDA-MB-231 [3] = test: Cytotoxicity against human MDA-MB-231 cells after 24 hrs by MTT assay; assay type: functional, cell-based; conditions: MDA-MB-231, 24 h
[4] = Cytotoxicity against human MCF10A cells after 24 hrs by MTT assay; assay type: cell-based; conditions: MCF-10A
[5] = Cytotoxicity against human MCF10A cells after 48 hrs by MTT assay; assay type: cell-based; conditions: MCF-10A
Nucleic Acid [6] = test: Displacement of ethidium bromide from calf thymus DNA assessed as decrease of fluorescence of bound ethidium bromide by fluorometric assay; assay type: nucleic-acid assay; conditions: Bos taurus
CHO-MG = test: Cytotoxicity against MGBG polyamine transporter deficient CHO-MG cells after 48 hrs by MTT assay; assay type: ADME, cell-based; conditions: Cricetulus griseus
CHO = test: Cytotoxicity against CHO cells expressing MGBG polyamine transporter after 48 hrs by MTT assay; assay type: ADME, cell-based; conditions: Cricetulus griseus
[7] = system: MGBG polyamine transporter; test: Ratio of IC50 for MGBG polyamine transporter deficient CHO-MG cells to IC50 for CHO cells expressing MGBG polyamine transporter; assay type: cell-based, Cricetulus griseus; conditions: chinese hamster; read-out: Ratio IC50
MDA-MB-231 [8] = test: Drug uptake in human MDA-MB-231 cells at 10 uM after 6 hrs by fluorescence microscopic analysis; assay type: ADME, cell-based; conditions: mda-mb-231, 6 h
MDA-MB-231 [9] = test: Drug uptake in human MDA-MB-231 cells at 10 uM after 0.5 hrs by fluorescence microscopic analysis; assay type: ADME, cell-based; conditions: mda-mb-231, 0.5 h
MCF7 = test: Cytotoxicity against human MCF7 cells after 48 hrs; assay type: functional, cell-based; conditions: MCF7, 48 h

Structure (SMILES)	Tm (Nucleic Acid [1]) [°C]	IC50 (MDA-MB-231 [2]) [µM]	IC50 (MDA-MB-231 [3]) [µM]	IC50 [4] [µM]	IC50 [5] [µM]	C50 (Nucleic Acid [6]) [µM]	IC50 (CHO-MG) [µM]	IC50 (CHO) [µM]	selectivity ratio [7]	Drug uptake (MDA-MB-231 [8])	Drug uptake (MDA-MB-231 [9])	IC50 (MCF7) [µM]
COc1cccc2c1C(=O)c1c(O)c3c(c(O)c1C2=O)C[C@@](O)(C(=O)CO)C[C@@H]3O[C@H]1C[C@H](N)[C@H](O)[C@H](C)O1 [DOXORUBICIN]	86.4	3.61	14.3	0.75	0.18	–	–	–	–	–	–	–
O=C1c2cccc3cccc(c23)C(=O)N1CCCNCCCCCCCCCCNCCCN1C(=O)c2cccc3cccc(c23)C1=O [BNIPDADEC]	84.4	3.32	4.85	2.77	2.82	1.8	–	–	–	–	–	–
O=C1c2cccc3cccc(c23)C(=O)N1CCCNCCCCNCCCN1C(=O)c2cccc3cccc(c23)C1=O	89.2	5.12	7.86	8.1	5.67	1.5	–	–	–	–	–	–
Br.O=C1c2cccc3cccc(c23)C(=O)N1CCCNCCOCCOCCNCCCN1C(=O)c2cccc3cccc(c23)C1=O	87.9	6.15	12.4	6.1	2.27	1.9	26.9	76.1	0.4	Active	–	–
Br.O=C1c2cccc3cccc(c23)C(=O)N1CCCNCCCCCCCCNCCCN1C(=O)c2cccc3cccc(c23)C1=O	88.7	2.68	4.99	2.77	0.87	1.7	5.1	5.8	0.9	–	Active	–
O=C1c2cccc3cccc(c23)C(=O)N1CCCNCCCCCCNCCCN1C(=O)c2cccc3cccc(c23)C1=O	91.9	4.54	7.22	0.84	0.83	1.5	–	–	–	–	–	–
O=C1c2cccc3cccc(c23)C(=O)N1CCCNC1CCCC(CC2CCCC(NCCCN3C(=O)c4cccc5cccc(c45)C3=O)C2)C1 (configuration not stated)	87.4	6.06	6.84	6.06	5.71	3.8	6.3	6.2	1	–	–	–
O=C1c2ccccc2C(=O)N1CCCNCCCCCCCCCCNCCCN1C(=O)c2ccccc2C1=O	72	> 40	> 40	> 40	> 40	> 10	–	–	–	–	–	–
O=C1c2c(O)ccc(O)c2C(=O)c2c(NCCNCCO)ccc(NCCNCCO)c21	91	–	–	–	–	–	–	–	–	–	–	–
CN1CCN(c2ccc3[nH]c(-c4ccc5[nH]c(-c6ccc(O)cc6)nc5c4)nc3c2)CC1	78.8	–	–	–	–	–	–	–	–	–	–	–
O=C1c2cccc3cccc(c23)C(=O)N1CCCNCCCCCCCCCCCCNCCCN1C(=O)c2cccc3cccc(c23)C1=O	81.2	6.88	5.11	4.17	6.83	3.4	–	–	–	–	–	–
CC(/C=N/NC(=N)N)=N\NC(=N)N [MITOGUAZONE]	–	–	–	–	–	–	> 100	3.3	> 30.2	–	–	–
Br.O=C1c2cccc3cccc(c23)C(=O)N1CCCNCCCCNCCCNCCCN1C(=O)c2cccc3cccc(c23)C1=O [BISNAPHTHALIMIDOPROPYL SPERMIDINE TRIHYDROBROMIDE]	91.5	4.59	12.7	4.19	3.97	1.4	74.6	76.5	1	Active	–	1.38
NCCCN1C(=O)c2cccc3cccc(c23)C1=O [NAPHTHALIMIDOPROPYLAMINE]	66.3	> 40	> 40	> 40	> 40	> 10	–	–	–	–	–	–
O=C1c2cccc3cccc(c23)C(=O)N1CCCNCCCNCCCCNCCCNCCCN1C(=O)c2cccc3cccc(c23)C1=O	–	–	–	–	–	–	–	–	–	–	–	1.38
